# Measurements reported in publication PMC3569073 (Journal of medicinal chemistry, 2013).
# pEC50, pIC50, pKi: −log10 of the molar value. Values joined by “and” are separate entries in the source; they are usually repeats but may differ in a detail not shown here. Identical values can stand only once. Like-named read-outs stand apart in the source and are kept apart here.
# Legend:
# SARS-CoV 3CLpro = SARS-CoV 3CLpro (Severe acute respiratory syndrome coronavirus, UniProt P0C6X7); assay: biochemical; type: biochemical; conditions: for inhibition at 100 µM: read-out: 3CLpro inhibition level
# SARS 3CLpro = conditions: cited from earlier work
# SARS-CoV = conditions: cited from earlier work
# [1] = target: T1, 3CLpro enzyme from the human coronavirus HKU1 (Human coronavirus HKU1, UniProt P0C6X2); type: biochemical; conditions: 100 μM
# T1 sequence (P0C6X2 3335-3637 limits assumed): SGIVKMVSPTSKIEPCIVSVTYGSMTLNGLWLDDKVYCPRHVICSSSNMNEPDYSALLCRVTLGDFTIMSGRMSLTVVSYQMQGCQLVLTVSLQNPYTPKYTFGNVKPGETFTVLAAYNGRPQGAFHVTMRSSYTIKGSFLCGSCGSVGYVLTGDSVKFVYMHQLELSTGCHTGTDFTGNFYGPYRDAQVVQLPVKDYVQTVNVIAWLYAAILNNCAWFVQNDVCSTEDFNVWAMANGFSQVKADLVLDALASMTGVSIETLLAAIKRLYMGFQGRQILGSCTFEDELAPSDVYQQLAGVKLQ
# [2] = target: T2, 3CLpro enzyme from the mouse coronavirus MHV (Murine coronavirus, UniProt P0C6X9); type: biochemical; conditions: 100 μM
# T2 sequence (P0C6X9 3334-3635 limits assumed): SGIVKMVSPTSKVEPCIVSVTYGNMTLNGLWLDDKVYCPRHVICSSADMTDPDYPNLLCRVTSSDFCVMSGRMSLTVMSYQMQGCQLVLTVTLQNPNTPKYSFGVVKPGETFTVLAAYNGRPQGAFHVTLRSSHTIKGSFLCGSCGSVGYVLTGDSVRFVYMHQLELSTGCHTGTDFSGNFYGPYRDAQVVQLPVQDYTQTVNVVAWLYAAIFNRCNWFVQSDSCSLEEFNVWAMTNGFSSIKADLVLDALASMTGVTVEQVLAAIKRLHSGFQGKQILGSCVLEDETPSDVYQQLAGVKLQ
# [3] = tested on: SARS-CoV infected Vero cells; conditions: cited from earlier work
# [4] = tested on: 68 discrete GPCRs, ion channels and transporters; type: binding; conditions: 10 μM
compound,measurement,setting,value
CC(C)(C)NC(=O)C(c1cccnc1)N(C(=O)c1ccco1)c1ccc(C(C)(C)C)cc1 (stereo not shown) [Compound 16],inhibition at 100 µM,SARS-CoV 3CLpro,> 50%
"Cc1ccc(C(C(=O)NC(C)(C)C)N(C(=O)c2ccco2)c2ccc(C(C)(C)C)cc2)cn1 (stereo not shown) [Compound 55, N-(4-(tert-butyl)phenyl)-N-(2-(tert-butylamino)-1-(6-methylpyridin-3-yl)-2-oxoethyl)furan-2-carboxamide]","3CLpro inhibition, SAR result in words",SARS-CoV 3CLpro,not permitted
CC(C)(C)NC(=O)C(c1ccnnc1)N(C(=O)c1ccco1)c1ccc(C(C)(C)C)cc1 (stereo not shown) [Compound 53],"3CLpro inhibition, SAR result in words",SARS-CoV 3CLpro,well tolerated
CC(C)(C)NC(=O)C(c1cccnc1)N(C(=O)C1CCCO1)c1ccc(C(C)(C)C)cc1 (stereo not shown) [Compound 32],pIC50,SARS-CoV 3CLpro,< 4.30
same,fold loss of 3CLpro activity relative to furan 16,SARS-CoV 3CLpro,> 10 fold
"CC(C)(C)NC(=O)C(c1cccnc1)N(C(=O)c1c[nH]cn1)c1ccc(C(C)(C)C)cc1 (stereo not shown) [Compound 31, N-(4-(tert-butyl)phenyl)-N-(2-(tert-butylamino)-2-oxo-1-(pyridin-3-yl)ethyl)-1H-imidazole-4-carboxamide]","3CLpro inhibition, SAR result in words",SARS-CoV 3CLpro,nearly equipotent
"CC(C)(C)NC(=O)C(c1cccnc1)N(C(=O)c1cccs1)c1ccc(C(C)(C)C)cc1 (stereo not shown) [Compound 27, N-(4-(tert-butyl)phenyl)-N-(2-(tert-butylamino)-2-oxo-1-(pyridin-3-yl)ethyl)thiophene-2-carboxamide]","3CLpro inhibition, SAR result in words",SARS-CoV 3CLpro,weakly tolerated
same,fold loss of 3CLpro activity relative to furan 16,SARS-CoV 3CLpro,10 fold
CC(C)(C)NC(=O)C(c1ccncc1)N(C(=O)c1ccco1)c1ccc(C(C)(C)C)cc1 (stereo not shown) [Compound 56],"3CLpro inhibition, SAR result in words",SARS-CoV 3CLpro,weak inhibitors
CCC(C)c1ccc(N(C(=O)c2ccco2)C(C(=O)NC2CCCC2)c2cccnc2)cc1 (stereo not shown) [Compound 14],pIC50,SARS-CoV 3CLpro,> 5.00
"CC(C)(C)NC(=O)C(c1cccnc1)N(C(=O)c1ccco1)C1CC1 (stereo not shown) [Compound 18, N-(2-(tert-butylamino)-2-oxo-1-(pyridin-3-yl)ethyl)-N-cyclopropylfuran-2-carboxamide]","3CLpro inhibition, SAR result in words",SARS-CoV 3CLpro,deleterious for inhibition
"Cn1cnc(C(=O)N(c2ccc(C(C)(C)C)cc2)C(C(=O)NC(C)(C)C)c2cccnc2)c1 (stereo not shown) [Compound 52, N-(4-(tert-butyl)phenyl)-N-(2-(tert-butylamino)-2-oxo-1-(pyridin-3-yl)ethyl)-1-methyl-1H-imidazole-4-carboxamide]",fold loss of 3CLpro activity relative to imidazole 31,SARS-CoV 3CLpro,> 10 fold
"CC(C)(C)NC(=O)C(c1cccnc1)N(C(=O)c1ccco1)c1ccc(F)cc1 (stereo not shown) [Compound 19, N-(2-(tert-butylamino)-2-oxo-1-(pyridin-3-yl)ethyl)-N-(4-fluorophenyl)furan-2-carboxamide]","3CLpro inhibition, SAR result in words",SARS-CoV 3CLpro,deleterious for inhibition
CC(C)(C)NC(=O)C(c1cccnc1)N(C(=O)Cc1cnc[nH]1)c1ccc(C(C)(C)C)cc1 (stereo not shown) [Compound 51],"3CLpro inhibition, SAR result in words",SARS-CoV 3CLpro,deleterious for inhibition
CC(C)(C)NC(=O)C(c1cnccn1)N(C(=O)c1ccco1)c1ccc(C(C)(C)C)cc1 (stereo not shown) [Compound 54],"3CLpro inhibition, SAR result in words",SARS-CoV 3CLpro,well tolerated
CC(C)(C)NC(=O)C(c1cccnc1)N(C(=O)c1ccc(Cl)o1)c1ccc(C(C)(C)C)cc1 (stereo not shown) [Compound 50],"3CLpro inhibition, SAR result in words",SARS-CoV 3CLpro,nearly equipotent to 16
CC[C@H](NC(=O)[C@@H](NC(=O)OCc1ccccc1)[C@@H](C)OC(C)(C)C)C(=O)N[C@H](C=O)C[C@@H]1CCNC1=O [TG-0205221],pKi,SARS 3CLpro,7.28
same,pEC50,SARS-CoV,6.22
CN(C)CCCSc1ccccc1NC(=O)/C=C/c1ccccc1 [cinanserin],inhibition of SARS-CoV 3CLpro,SARS-CoV 3CLpro; 100 μM,no inhibition
same,inhibition of authentic SARS-CoV 3CLpro,SARS-CoV 3CLpro; 100 μM,no inhibition
same,inhibition of HKU1 3CLpro,[1],no inhibition
same,inhibition of MHV 3CLpro,[2],no inhibition
same,reduction of viral RNA in cell culture media,[3],3 log
Cc1ccoc1C(=O)N(c1ccc(C(C)(C)C)cc1)C(C(=O)NC(C)(C)C)c1cccnc1 (stereo not shown) [Compound 26],"3CLpro inhibition, SAR result in words",SARS-CoV 3CLpro,negatively impacted activity
"CC(C)(C)NC(=O)C(c1ccsc1)N(C(=O)c1ccco1)c1ccc(C(C)(C)C)cc1 (stereo not shown) [Compound 20, N-(4-(tert-butyl)phenyl)-N-(2-(tert-butylamino)-2-oxo-1-(thiophen-3-yl)ethyl)furan-2-carboxamide]","3CLpro inhibition, SAR result in words",SARS-CoV 3CLpro,complete loss of inhibition activity
"CC(C)c1ccc(N(C(=O)c2ccco2)C(C(=O)NC(C)(C)C)c2cccnc2)cc1 (stereo not shown) [Compound 17, N-(2-(tert-butylamino)-2-oxo-1-(pyridin-3-yl)ethyl)-N-(4-isopropylphenyl)furan-2-carboxamide]",pIC50,SARS-CoV 3CLpro; read-out: 3CLpro IC50,> 4.30
same,inhibition at 100 µM,SARS-CoV 3CLpro,> 50%
CC(C)(C)NC(=O)C(c1cccnc1)N(C(=O)c1ccc[nH]1)c1ccc(C(C)(C)C)cc1 (stereo not shown) [Compound 37],"3CLpro inhibition, SAR result in words",SARS-CoV 3CLpro,completely inactive
Cc1ccc(C(=O)N(c2ccc(C(C)(C)C)cc2)C(C(=O)NC(C)(C)C)c2cccnc2)o1 (stereo not shown) [Compound 21],"3CLpro inhibition, SAR result in words",SARS-CoV 3CLpro,negatively impacted activity
"CC(C)(C)NC(=O)[C@@H](c1cccnc1)N(C(=O)c1ccco1)c1ccc(C(C)(C)C)cc1 [16-(R), (R)-N-(4-(tert-butyl)phenyl)-N-(2-(tert-butylamino)-2-oxo-1-(pyridin-3-yl)ethyl)furan-2-carboxamide]",activity in lead-profiling screen,[4],< 50%
same,solubility,physchem,≤ 95 µg/mL and ≤ 219 µM
